Key:
Details in all cases: 72 h
Caco-2 [1] = test: drug sensitivity score (DSS) for viability; higher = more toxic; extreme values may be limits of the assay
Vero E6 [2] = test: as above
Calu-3 [3] = test: as above
HepG2 [4] = test: as above
U2OS [5] = test: as above
Caco-2 [6] = test: cell viability relative to DMSO; higher = less toxic
Vero E6 [7] = test: as above
Calu-3 [8] = test: as above
HepG2 [9] = test: as above
U2OS [10] = test: as above
Caco-2 [11] = test: relative viability EC50 (midpoint between 100% and the lowest measured viability); higher = less toxic
Vero E6 [12] = test: as above
Calu-3 [13] = test: as above
HepG2 [14] = test: as above
U2OS [15] = test: as above

| Compound | drug sensitivity score (Caco-2 [1]) | drug sensitivity score (Vero E6 [2]) | drug sensitivity score (Calu-3 [3]) | drug sensitivity score (HepG2 [4]) | drug sensitivity score (U2OS [5]) | cell viability (Caco-2 [6]; 1 nM) | cell viability (Caco-2 [6]; 10 nM) | cell viability (Caco-2 [6]; 100 nM) | cell viability (Caco-2 [6]; 1000 nM) | cell viability (Caco-2 [6]; 10000 nM) | cell viability (Vero E6 [7]; 1 nM) | cell viability (Vero E6 [7]; 10 nM) | cell viability (Vero E6 [7]; 100 nM) | cell viability (Vero E6 [7]; 1000 nM) | cell viability (Vero E6 [7]; 10000 nM) | cell viability (Calu-3 [8]; 1 nM) | cell viability (Calu-3 [8]; 10 nM) | cell viability (Calu-3 [8]; 100 nM) | cell viability (Calu-3 [8]; 1000 nM) | cell viability (Calu-3 [8]; 10000 nM) | cell viability (HepG2 [9]; 1 nM) | cell viability (HepG2 [9]; 10 nM) | cell viability (HepG2 [9]; 100 nM) | cell viability (HepG2 [9]; 1000 nM) | cell viability (HepG2 [9]; 10000 nM) | cell viability (U2OS [10]; 1 nM) | cell viability (U2OS [10]; 10 nM) | cell viability (U2OS [10]; 100 nM) | cell viability (U2OS [10]; 1000 nM) | cell viability (U2OS [10]; 10000 nM) | relative viability EC50 (Caco-2 [11]) | relative viability EC50 (Vero E6 [12]) | relative viability EC50 (Calu-3 [13]) | relative viability EC50 (HepG2 [14]) | relative viability EC50 (U2OS [15]) |
| --- | --- | --- | --- | --- | --- | --- | --- | --- | --- | --- | --- | --- | --- | --- | --- | --- | --- | --- | --- | --- | --- | --- | --- | --- | --- | --- | --- | --- | --- | --- | --- | --- | --- | --- | --- |
| CCN1C[C@H](C)n2c(c(O)c3c(=O)n(Cc4ccc(F)c(Cl)c4)nc(C(=O)NC)c32)C1=O [MK-2048] | 0 | 0 | 0 | 0 | 0 | 97.2% | 96% | 93.2% | 94.7% | 87.4% | 101% | 100% | 105% | 101% | 98% | 91.3% | 90.2% | 92.3% | 98.2% | 93.7% | 110% | 106% | 93.9% | 100% | 98.4% | 101% | 96.3% | 102% | 98.5% | 97.8% | > 10 µM | > 10 µM | > 10 µM | > 10 µM | > 10 µM |
| O[C@@](Cc1nc(CC2(C(F)(F)F)CC2)c[nH]1)(c1ccc(-n2cccn2)cc1)C(F)(F)F [MK-5046] | 0.1 | 0 | 0 | 0 | 0 | 102% | 115% | 98.8% | 97% | 88.4% | 97.8% | 96.7% | 98.5% | 100% | 98.2% | 107% | 95.3% | 105% | 110% | 87.5% | 99.5% | 101% | 104% | 94.7% | 96.6% | 96% | 96.9% | 92.8% | 96.3% | 90.8% | > 10 µM | > 10 µM | > 10 µM | > 10 µM | > 10 µM |
| Clc1cccc(Nc2nnc(-c3ccccc3)c3ccccc23)c1 [MY-5445] | 0 | 0 | 0 | 0 | 0 | 93% | 104% | 94.7% | 104% | 97.9% | 96.6% | 96.7% | 95.8% | 92.1% | 106% | 95.2% | 97.7% | 88.2% | 104% | 104% | 104% | 98.4% | 107% | 104% | 103% | 95% | 98.2% | 95.6% | 99.8% | 101% | > 10 µM | > 10 µM | > 10 µM | > 10 µM | > 10 µM |
| Cc1ncc(COP(=O)([O-])[O-])c(CN(CCN(CC(=O)O)Cc2c(COP(=O)([O-])O)cnc(C)c2O)CC(=O)O)c1O.[Mn].[Na+].[Na+].[Na+] [Mangafodipir (trisodium)] | 0 | 0 | 0 | 0 | 0 | 95.1% | 99.5% | 94.5% | 108% | 135% | 111% | 99.7% | 107% | 97% | 99.2% | 91.5% | 107% | 104% | 87.6% | 103% | 110% | 89.4% | 105% | 101% | 98.4% | 95.1% | 100% | 94.7% | 93.4% | 101% | > 10 µM | > 10 µM | > 10 µM | > 10 µM | > 10 µM |
| Cc1cc(=O)n(-c2ccccc2)[nH]1 [N-demethylantipyrine] | 0 | 0 | 0 | 0 | 0 | 99.3% | 97.2% | 102% | 84.8% | 99.8% | 104% | 101% | 94.2% | 95.2% | 102% | 102% | 107% | 98.5% | 97% | 106% | 94.1% | 106% | 95.3% | 107% | 93.8% | 101% | 99.7% | 98.7% | 102% | 98.5% | > 10 µM | > 10 µM | > 10 µM | > 10 µM | > 10 µM |
